Numbered stars: 1 amine (or outer) side, 2 acyl side, 3 side chain; on linkers, the order of the positions; unused ones are H or OH. Square brackets hold non-standard residues; d marks the D form. Peptide text beside a SMILES is read from it. X2 = CC[C@H](C)[C@@H](N[*:1])C1=N[C@H](C(=O)[*:2])CS1; X1 = O=C([C@@H]1CSC([C@H]2CCCN2[*:1])=N1)[*:2]
Tested on: P388
Test: Cytotoxicity against mouse P388 cells after 3 days by MTT assay
Assay type: functional, cell-based
Conditions: P388, 72 h

Structure (SMILES)	IC50 [µM]
CC[C@H](C)[C@@H]1NC(=O)[C@@H]2CSC(=N2)[C@H]2CCCN2C(=O)[C@H]([C@@H](C)O)NC(=O)[C@H](C(C)C)NC(=O)[C@H](C(C)C)NC(=O)[C@H]([C@@H](C)O)NC(=O)[C@@H]2CSC(=N2)[C@@H]([C@@H](C)CC)NC(=O)[C@H](C(C)C)NC(=O)[C@@H]2CSC(=N2)[C@H]2CCCN2C1=O [CYCLOFORSKAMIDE] (cyclo(I[X1]V[X2]TVVT[X1]))	5.8
COc1cccc2c1C(=O)c1c(O)c3c(c(O)c1C2=O)C[C@@](O)(C(=O)CO)C[C@@H]3O[C@H]1C[C@H](N)[C@H](O)[C@H](C)O1 [DOXORUBICIN]	0.21
